The results in this text go back to US10323022B2, “Pyrrolidinyl urea, pyrrolidinyl thiourea and pyrrolidinyl guanidine compounds as TrkA kinase inhibitors” (Array BioPharma Inc., priority 2011, dated 2019).

Where a name gives a salt, the structure may show the parent alone.

Sequence of TrkA (P04629 33-796): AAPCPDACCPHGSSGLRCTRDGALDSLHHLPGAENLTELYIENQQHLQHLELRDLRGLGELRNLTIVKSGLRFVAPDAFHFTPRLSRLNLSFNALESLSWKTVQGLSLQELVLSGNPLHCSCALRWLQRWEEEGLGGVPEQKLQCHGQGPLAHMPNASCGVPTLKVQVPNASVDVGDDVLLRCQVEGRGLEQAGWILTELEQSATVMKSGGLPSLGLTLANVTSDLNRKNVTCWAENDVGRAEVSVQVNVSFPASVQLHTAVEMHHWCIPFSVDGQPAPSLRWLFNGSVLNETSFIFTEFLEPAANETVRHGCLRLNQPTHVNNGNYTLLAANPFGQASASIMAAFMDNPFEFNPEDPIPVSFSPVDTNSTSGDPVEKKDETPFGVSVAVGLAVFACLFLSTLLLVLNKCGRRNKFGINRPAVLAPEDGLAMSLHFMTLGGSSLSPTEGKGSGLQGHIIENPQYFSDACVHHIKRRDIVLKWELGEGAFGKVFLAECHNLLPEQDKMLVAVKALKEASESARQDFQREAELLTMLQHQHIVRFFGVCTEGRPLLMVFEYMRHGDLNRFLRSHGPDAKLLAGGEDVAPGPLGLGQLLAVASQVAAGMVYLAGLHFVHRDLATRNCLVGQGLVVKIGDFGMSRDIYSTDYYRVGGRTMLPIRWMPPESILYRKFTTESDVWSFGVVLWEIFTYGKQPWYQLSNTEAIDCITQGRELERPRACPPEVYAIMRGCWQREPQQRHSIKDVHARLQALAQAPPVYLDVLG

For this assay, the target named is TrkA (Homo sapiens (Human), UniProt P04629). Put plainly: TrkA Omnia Assay. In kind it is biochemical. The note with it: averaged IC50; 20 nM enzyme, 500 μM ATP, 10 μM peptide substrate. A digest of the protocol:
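Recombinant TrkA (20 nM) preincubated 10 min at ambient temperature with compound, then Omnia Tyr Peptide #4 (10 μM) and ATP (500 μM) added in 25 mM MOPS pH 7.5, 5 mM MgCl2, 0.005% Triton X-100. Fluorescence (ex 360/em 485 nm) followed continuously for 70 min; IC50 from initial rates by 4- or 5-parameter logistic fit.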
Usually IC50 stands for the concentration that inhibits the measured activity by half. In the case of `COCCN1C[C@@H](NC(=O)Nc2c(F)c(-c3ccccc3)nn2C)[C@H](c2ccc(F)c(F)c2)C1` [Example 168, 1-((3S,4R)-4-(3,4-difluorophenyl)-1-(2-methoxyethyl)pyrrolidin-3-yl)-3-(4-fluoro-1-methyl-3-phenyl-1H-pyrazol-5-yl)urea], the IC50 was under 100 nM.

For the molecule `COCCN1C[C@@H](NC(=O)Nc2c(F)c(-c3ccccc3)nn2-c2ccccc2)[C@H](c2ccc(F)c(F)c2)C1` [Example 169, 1-((3S,4R)-4-(3,4-difluorophenyl)-1-(2-methoxyethyl)pyrrolidin-3-yl)-3-(4-fluoro-1,3-diphenyl-1H-pyrazol-5-yl)urea], the IC50 is under 100 nM.

`COCCOC(=O)c1ccc(-c2cc(NC(=O)N[C@@H]3CN(CCOC)C[C@H]3c3ccc(F)c(F)c3)n(C)n2)cc1` [Example 170, 2-methoxyethyl 4-(5-(3-((3S,4R)-4-(3,4-difluorophenyl)-1-(2-methoxyethyl)pyrrolidin-3-yl)ureido)-1-methyl-1H-pyrazol-3-yl)benzoate] gave a half-maximal inhibitory concentration (IC50) of under 100 nM.

`COCCN1C[C@@H](NC(=O)Nc2c3c(nn2-c2ccccc2)CS(=O)(=O)C3)[C@H](c2ccc(F)c(F)c2)C1` [Example 171, 1-((3S,4R)-4-(3,4-difluorophenyl)-1-(2-methoxyethyl)pyrrolidin-3-yl)-3-(5,5-dioxido-2-phenyl-4,6-dihydro-2H-thieno[3,4-c]pyrazol-3-yl)urea]: the IC50 is under 100 nM.

Turning to `COCCN1C[C@@H](NC(=O)Nc2c3c(nn2-c2ccccc2)CS(=O)(=O)C3)[C@H](c2ccccc2)C1` [Example 172, 1-(5,5-dioxido-2-phenyl-4,6-dihydro-2H-thieno[3,4-c]pyrazol-3-yl)-3-((3S,4R)-1-(2-methoxyethyl)-4-phenylpyrrolidin-3-yl)urea], the IC50 is under 100 nM.

With `COCCN1C[C@@H](NC(=O)Nc2c3c(nn2-c2ccccc2)CS(=O)(=O)C3)[C@H](c2cc(F)cc(F)c2)C1` [Example 173, 1-((3S,4R)-4-(3,5-difluorophenyl)-1-(2-methoxyethyl)pyrrolidin-3-yl)-3-(5,5-dioxido-2-phenyl-4,6-dihydro-2H-thieno[3,4-c]pyrazol-3-yl)urea], the concentration for half-maximal inhibition (IC50) was under 100 nM.

For `COCCN1C[C@@H](NC(=O)Nc2c(C)c(OCCS(C)(=O)=O)nn2-c2ccccc2)[C@H](c2ccc(F)c(F)c2)C1` [Example 174, 1-((3S,4R)-4-(3,4-difluorophenyl)-1-(2-methoxyethyl)pyrrolidin-3-yl)-3-(4-methyl-3-(2-(methylsulfonyl)ethoxy)-1-phenyl-1H-pyrazol-5-yl)urea], the 50% inhibitory concentration (IC50) is under 100 nM.

On to `COCCN1C[C@@H](NC(=O)Nc2c(CO)cnn2-c2ccccc2)[C@H](c2ccc(F)c(F)c2)C1` [Example 175, 1-((3S,4R)-4-(3,4-difluorophenyl)-1-(2-methoxyethyl)pyrrolidin-3-yl)-3-(4-(hydroxymethyl)-1-phenyl-1H-pyrazol-5-yl)urea], for which the IC50 is under 100 nM.

Consider `COCCN1C[C@@H](NC(=O)Nc2c(C)c(OC[C@H](O)CO)nn2-c2ccccc2)[C@H](c2ccc(F)c(F)c2)C1` [Example 176, 1-((3S,4R)-4-(3,4-difluorophenyl)-1-(2-methoxyethyl)pyrrolidin-3-yl)-3-(3-((R)-2,3-dihydroxypropoxy)-4-methyl-1-phenyl-1H-pyrazol-5-yl)urea], for which the IC50 is under 100 nM.

In turn, `COCCN1C[C@@H](NC(=O)Nc2c(C)c(OC[C@@H](O)CO)nn2-c2ccccc2)[C@H](c2ccc(F)c(F)c2)C1` [Example 177, 1-((3S,4R)-4-(3,4-difluorophenyl)-1-(2-methoxyethyl)pyrrolidin-3-yl)-3-(3-((S)-2,3-dihydroxypropoxy)-4-methyl-1-phenyl-1H-pyrazol-5-yl)urea] had an IC50 of under 100 nM.

Take `COCCN1C[C@@H](NC(=O)Nc2c(C)c(OCCO)nn2-c2ccccc2)[C@H](c2ccc(F)c(F)c2)C1` [Example 178, 1-((3S,4R)-4-(3,4-difluorophenyl)-1-(2-methoxyethyl)pyrrolidin-3-yl)-3-(3-(2-hydroxyethoxy)-4-methyl-1-phenyl-1H-pyrazol-5-yl)urea hydrochloride]: the IC50 is under 100 nM.

For the molecule `COCCN1C[C@@H](NC(=O)Nc2c(C)c(OC[C@H](C)O)nn2-c2ccccc2)[C@H](c2ccc(F)c(F)c2)C1` [Example 179, 1-((3S,4R)-4-(3,4-difluorophenyl)-1-(2-methoxyethyl)pyrrolidin-3-yl)-3-(3-((S)-2-hydroxypropoxy)-4-methyl-1-phenyl-1H-pyrazol-5-yl)urea hydrochloride], the IC50 is under 100 nM.

Molecule `COCCN1C[C@@H](NC(=O)Nc2c3c(nn2-c2ccccc2)CCC3)[C@](O)(c2ccccc2)C1` [Example 180, 1-((3R,4S)-4-hydroxy-1-(2-methoxyethyl)-4-phenylpyrrolidin-3-yl)-3-(2-phenyl-2,4,5,6-tetrahydrocyclopenta[c]pyrazol-3-yl)urea] gave an IC50 of 1000 to 10000 nM.

In turn, `COCCN1C[C@@H](NC(=O)Nc2c3c(nn2-c2ccccc2)CCC3)[C@](F)(c2ccccc2)C1` [Example 181, 1-((3R,4S)-4-fluoro-1-(2-methoxyethyl)-4-phenylpyrrolidin-3-yl)-3-(2-phenyl-2,4,5,6-tetrahydrocyclopenta[c]pyrazol-3-yl)urea] showed an IC50 of 100 to 1000 nM.

For the molecule `CO[C@@H](C)CN1C[C@@H](NC(=O)Nc2c3c(nn2-c2ccccc2)CCC3)[C@H](c2ccccc2)C1` [Example 184, 1-((3S,4R)-1-((S)-2-methoxypropyl)-4-phenylpyrrolidin-3-yl)-3-(2-phenyl-2,4,5,6-tetrahydrocyclopenta[c]pyrazol-3-yl)urea], the IC50 was in the range of 1000 to 10000 nM.

Turning to `O=C(Nc1c2c(nn1-c1ccccc1)CCC2)NC1CN(CCCC(F)(F)F)C[C@H]1c1ccccc1` (stereo partly drawn) [Example 185, 1-((3,4-trans)-4-phenyl-1-(4,4,4-trifluorobutyl)pyrrolidin-3-yl)-3-(2-phenyl-2,4,5,6-tetrahydrocyclopenta[c]pyrazol-3-yl)urea], the IC50 was in the range of 100 to 1000 nM.

Regarding `N#CCN1C[C@@H](NC(=O)Nc2c3c(nn2-c2ccccc2)CCC3)[C@H](c2ccc(F)c(F)c2)C1` [Example 186, 1-((3S,4R)-1-(cyanomethyl)-4-(3,4-difluorophenyl)pyrrolidin-3-yl)-3-(2-phenyl-2,4,5,6-tetrahydrocyclopenta[c]pyrazol-3-yl)urea], the IC50 was under 100 nM.

In turn, `COCCOc1nn(-c2ccccc2)c(NC(=O)N[C@@H]2CN(CC#N)C[C@H]2c2ccc(F)c(F)c2)c1C` [Example 187, 1-((3S,4R)-1-(cyanomethyl)-4-(3,4-difluorophenyl)pyrrolidin-3-yl)-3-(3-(2-methoxyethoxy)-4-methyl-1-phenyl-1H-pyrazol-5-yl)urea] gave an IC50 of 100 to 1000 nM.

The molecule `N#CCN1C[C@@H](NC(=O)Nc2c3c(nn2-c2ccccc2)CCC3)[C@H](c2ccccc2)C1` [Example 188, 1-((3,4-trans)-1-(cyanomethyl)-4-phenylpyrrolidin-3-yl)-3-(2-phenyl-2,4,5,6-tetrahydrocyclopenta[c]pyrazol-3-yl)urea] came in with an IC50 of 100 to 1000 nM.

For the molecule `N#CCN1C[C@@H](NC(=O)Nc2c3c(nn2-c2ccccc2)CCC3)[C@H](c2ccccc2)C1` [Example 189, 1-((3S,4R)-1-(cyanomethyl)-4-phenylpyrrolidin-3-yl)-3-(2-phenyl-2,4,5,6-tetrahydrocyclopenta[c]pyrazol-3-yl)urea], the IC50 was 100 to 1000 nM.

Molecule `NC(=O)CN1C[C@@H](NC(=O)Nc2c3c(nn2-c2ccccc2)CCC3)[C@H](c2ccccc2)C1` [Example 190, 2-((3R,4S)-3-phenyl-4-(3-(2-phenyl-2,4,5,6-tetrahydrocyclopenta[c]pyrazol-3-yl)ureido)pyrrolidin-1-yl)acetamide] came in with an IC50 of 1000 to 10000 nM.

On to `Cc1nn(-c2ccccc2)c(NC(=O)N[C@@H]2CN(CCO)C[C@H]2c2ccc(F)c(F)c2)c1C` [Example 191, 1-((3S,4R)-4-(3,4-difluorophenyvl)-1-(2-hydroxyethyl)pyrrolidin-3-yl)-3-(3,4-dimethyl-1-phenyl-1H-pyrazol-5-yl)urea], for which the IC50 lay within 100 to 1000 nM.

`O=C(Nc1c2c(nn1-c1ccccc1)CCC2)N[C@@H]1CN(CCC(F)(F)C(F)(F)F)C[C@H]1c1ccccc1` [Example 192, 1-((trans)-1-(3,3,4,4,4-pentafluorobutyl)-4-phenlpyrrrolidin-3-yl)-3-(2-phenyl-2,4,5,6-tetrahydrocyclopenta[c]pyrazol-3-yl)urea] displayed an IC50 of 100 to 1000 nM.

`O=C(Nc1c2c(nn1-c1ccccc1)CCC2)N[C@@H]1CN(CC(F)(F)F)C[C@H]1c1cccc(F)c1` [Example 200, 1-((3S,4R)-4-(3-fluorophenyl)-1-(2,2,2-trifluoroethyl)pyrrolidin-3-yl)-3-(2-phenyl-2,4,5,6-tetrahydrocyclopenta[c]pyrazol-3-yl)urea]: the IC50 is 100 to 1000 nM.

Consider `Cc1nn(-c2ccccc2)c(NC(=O)N[C@@H]2CN(CC(F)(F)F)C[C@H]2c2cccc(F)c2)c1C` [Example 201, 1-(3,4-dimethyl-1-phenyl-1H-pyrazol-5-yl)-3-((3S,4R)-4-(3-fluorophenyl)-1-(2,2,2-trifluoroethyl)pyrrolidin-3-yl)urea], for which the IC50 is 100 to 1000 nM.

As for `COCCOc1nn(-c2ccccc2)c(NC(=O)N[C@@H]2CN(CC(F)(F)F)C[C@H]2c2cccc(F)c2)c1C` [Example 202, 1-((3S,4R)-4-(3-fluorophenyl)-1-(2,2,2-trifluoroethyl)pyrrolidin-3-yl)-3-(3-(2-methoxyethoxy)-4-methyl-1-phenyl-1H-pyrazol-5-yl)urea], the IC50 was under 100 nM.

In turn, `Cn1nc(-c2ccccc2)cc1NC(=O)N[C@@H]1CN(CC(F)(F)F)C[C@H]1c1cccc(F)c1` [Example 203, 1-((3S,4R)-4-(3-fluorophenyl)-1-(2,2,2-trifluoroethyl)pyrrolidin-3-yl)-3-(1-methyl-3-phenyl-H-pyrazol-5-yl)urea] gave an IC50 of 100 to 1000 nM.
